From patent US5338845A, “Aspergillus species, cyclic dimeric dipeptide derivative substance P antagonist biosynthetic products thereof, and process for preparation thereof” (Sterling Winthrop Inc., priority 1992, dated 1994)

What was measured:
[1] = quoted from Springer et al., Tetrahedron Letters 1977; cited from earlier work
NK1 [2] = target: T1, NK1 (Homo sapiens, UniProt P25103); experiment: Substance P NK1 receptor binding, 125I-Bolton Hunter Substance P, human astrocytoma cells (U-373 MG); design: host or cells: U-373 MG human astrocytoma cells (intact monolayer); settings: for IC50: comparative test with ditryptophenaline, read-out: IC50, Substance P antagonist activity in human astrocytoma cells
Procedure: (§1) As stated above the compounds of Formula I are useful as Substance P antagonists and therefore as analgesic and/or antiinflammatory agents. Substance P antagonist NK1 receptor binding activity was determined using guinea pig submaxillary gland tissue and human astrocytoma cells.
Human astrocytoma cells (U--373 MG, ATCC No. HTB 17) were cultured in 75-mL flasks in an aqueous medium containing horse serum (heat inactivated, 10%), minimum essential amino acids (2%), minimum essential vitamin solution (2%), and an aqueous solution of penicillin (10,000 units/mL) and streptomycin (10,000 μg/mL) (Penn-Strep, 2%), which was sterilized by filtration through a disposable filter (Nalgene, VWR Cat. No. 28199-585). The medium was replaced twice weekly. Cells were passaged (1:4 split) by removing the medium and adding aqueous trypsin (0.25%, 8 mL/flask). The flasks were swirled for 30 seconds, the aqueous trypsin was removed, and the cells were incubated for 5 minutes at room temperature, then washed twice with fresh medium (7 mL each time). Poly-D-lysine solution (50 μg/mL in aqueous phosphate saline buffer, 0.25 mL) was added to each well of a sterile 96-well […] plate (Corning), which was then incubated at room temperature for 40 minutes. The poly-D-lysine solution was removed, each well was washed twice with aqueous phosphate saline buffer (0.25 mL), cells were added (0.2 mL/well), and the plate was incubated at 37° C. for two days in an oxygen-carbon dioxide (95:5) atmosphere to provide a monolayer of 1.4-1.9×10^4 cells per well.
To test for receptor binding the aqueous phosphate saline buffer was removed from each well, the cell monolayer was washed three times with assay buffer (aqueous 2-[4-(2-hydroxyethyl)-1-piperazinyl]ethanesulfonic acid [HEPES], 25 mM; potassium chloride, 5.8 mM; monopotassium phosphate, 2.2 mM; sodium chloride, 115 mM; magnesium sulfate, 0.6 mM; calcium chloride, 1.8 mM; bovine serum albumin, 1%; glucose, 5 mM; thiorphan, 1 μM; and bacitracin, 40 μg/mL; pH adjusted to 7.40 with dilute hydrochloric acid; 0.25 mL each time). To each well was then added assay buffer alone (0.1 mL) or a mixture (0.1 mL) with assay buffer as diluent containing ^125 I-Bolton Hunter Substance P (Amersham, Inc., Arlington Heights, Ill.; 0.1 nanomole) and test compound in amount to give the desired concentration thereof or, to determine nonspecific binding, unlabelled Substance P (0.1 micromole) and the plate was incubated at 25° C. for 90 minutes. […] The radioactivity of part (100 μL) of the detachment mixture was measured in a gamma ray counter (Packard Cobra). Kd and IC50 values were determined and a Ki value was calculated for each test compound as described above.

NK2 receptor [3] = target: T2, NK2 receptor (Rattus norvegicus, UniProt P16610); experiment: 125I-neurokinin A binding to the NK2 receptor in rat duodenum membranes; design: from tissue; settings: read-out: Ki, inhibition of 125I-neurokinin A binding to the NK2 receptor
T2 sequence (P16610 1-390): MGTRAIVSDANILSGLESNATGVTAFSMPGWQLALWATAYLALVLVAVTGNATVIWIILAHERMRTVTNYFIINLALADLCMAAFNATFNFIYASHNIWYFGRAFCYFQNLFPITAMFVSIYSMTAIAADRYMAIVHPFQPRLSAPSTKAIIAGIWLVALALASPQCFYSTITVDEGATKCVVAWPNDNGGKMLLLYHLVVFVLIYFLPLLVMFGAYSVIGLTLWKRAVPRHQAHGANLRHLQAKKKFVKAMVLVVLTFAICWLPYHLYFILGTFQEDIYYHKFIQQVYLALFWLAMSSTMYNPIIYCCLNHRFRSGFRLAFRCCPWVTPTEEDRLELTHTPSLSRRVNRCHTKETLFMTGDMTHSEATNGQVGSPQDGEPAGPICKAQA

NK1 [4] = target: T3, NK1 (Cavia porcellus, UniProt P30547); experiment: NK1 functional assay: Substance P-induced contractility in the guinea pig ileum; format: cell-based; design: Substance P-induced contractility in the guinea pig ileum; from tissue; host or cells: guinea pig ileum (organ preparation)
NK1 [5] = target: T1, NK1; experiment: NK1 functional assay: Substance P-induced 45Ca2+ efflux from human astrocytoma U373MG cells; format: cell-based; design: Human astrocytoma cells (U--373 MG, ATCC No. HTB 17) were cultured in 75-mL flasks; host or cells: U-373 MG human astrocytoma cells (intact monolayer); settings: read-out: IC50, inhibition of Substance P-induced 45Ca2+ efflux
NK2 receptor [6] = target: T4, NK2 receptor (Homo sapiens, UniProt P21452); experiment: 125I-neurokinin A binding to the NK2 receptor in human urinary bladder membranes; settings: read-out: Ki, inhibition of 125I-neurokinin A binding to the NK2 receptor
T4 construct: NK2 receptor in both rat duodenum and human urinary bladder membranes; from tissue; host or cells: human urinary bladder membranes
T4 sequence (P21452 1-398): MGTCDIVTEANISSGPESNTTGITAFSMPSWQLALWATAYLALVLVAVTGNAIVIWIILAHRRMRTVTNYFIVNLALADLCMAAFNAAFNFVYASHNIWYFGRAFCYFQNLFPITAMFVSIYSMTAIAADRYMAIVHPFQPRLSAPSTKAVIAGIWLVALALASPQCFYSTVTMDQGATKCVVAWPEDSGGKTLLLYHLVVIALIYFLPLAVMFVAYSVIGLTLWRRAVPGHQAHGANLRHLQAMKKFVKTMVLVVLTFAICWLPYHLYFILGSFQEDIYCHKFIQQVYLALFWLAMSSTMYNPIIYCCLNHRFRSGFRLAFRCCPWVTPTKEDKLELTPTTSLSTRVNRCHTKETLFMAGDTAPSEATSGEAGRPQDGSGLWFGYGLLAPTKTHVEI

NK2 receptor [7] = target: T2, NK2 receptor; experiment: Eledoisin-induced contractility in rat vas deferens model; format: cell-based; design: from tissue; host or cells: rat vas deferens (organ preparation); settings: functional antagonism at the NK2 receptor, read-out: IC50, inhibition of eledoisin-induced contractility
NK1 [8] = target: T3, NK1; experiment: Substance P NK1 receptor binding, tritiated Substance P, guinea pig submaxillary gland tissue; design: the resulting submaxillary gland tissue preparation (1.0 to 1.5 mL) was stored at -70° C; tissue Pel Freeze Biologicals; host or cells: guinea pig submaxillary gland homogenate; settings: tritiated Substance P 0.75 nM; Ki calculated from IC50 by Cheng-Prusoff; read-out: Ki Guinea Pig Submaxillary Gland Tissue (Substance P antagonist potency)
Procedure: as §1
Submaxillary glands from both sexes of Hartley guinea pigs were obtained from Pel Freeze Biologicals, Rogers, Arkansas by overnight express in a plastic bag kept cold in wet ice. […] Using serum bovine albumin as the standard the protein yield was determined by the Bradford method (Bio-Rad, Richmond, Calif.) to be 7-8 mg/mL or about 250 mg from 50 submaxillary glands.
To test for receptor binding a sample of the submaxillary gland tissue preparation was thawed on ice and rehomogenized with a glass homogenizer (Dounce). […] The residue on the filter was washed three times with tromethamine buffer (3 mL each time) and its radioactivity was measured in a liquid scintillation counter (Beckman LS5000) (x=number of counts per minute with test compound, y=number of counts per minute without test compound). […] The dissociation constant (Kd) for receptor binding was determined by varying the concentration of tritiated Substance P. The following calculations were made: […]

NK3 = target: T5, NK3 (Cavia porcellus, UniProt P30098); experiment: NK3 selective ligand 3H-senktide binding, guinea pig forebrain membrane preparation; settings: read-out: IC50 against NK3 selective ligand 3H-senktide
T5 construct: tested in a guinea pig forebrain membrane preparation; from tissue; host or cells: guinea pig forebrain membrane preparation
T5 sequence (P30098 1-440): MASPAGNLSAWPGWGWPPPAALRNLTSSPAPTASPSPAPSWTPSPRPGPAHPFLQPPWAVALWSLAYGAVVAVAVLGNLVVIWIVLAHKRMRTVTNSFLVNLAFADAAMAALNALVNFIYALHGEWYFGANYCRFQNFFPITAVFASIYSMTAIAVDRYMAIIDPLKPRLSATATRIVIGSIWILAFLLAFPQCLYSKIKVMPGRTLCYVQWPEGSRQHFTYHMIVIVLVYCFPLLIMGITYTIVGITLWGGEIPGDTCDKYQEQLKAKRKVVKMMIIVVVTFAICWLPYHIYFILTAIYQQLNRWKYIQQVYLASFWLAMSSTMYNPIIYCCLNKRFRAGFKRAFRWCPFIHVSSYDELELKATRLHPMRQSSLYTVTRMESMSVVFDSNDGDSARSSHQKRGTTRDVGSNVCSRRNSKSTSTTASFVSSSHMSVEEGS

T1 sequence (P25103 whole entry): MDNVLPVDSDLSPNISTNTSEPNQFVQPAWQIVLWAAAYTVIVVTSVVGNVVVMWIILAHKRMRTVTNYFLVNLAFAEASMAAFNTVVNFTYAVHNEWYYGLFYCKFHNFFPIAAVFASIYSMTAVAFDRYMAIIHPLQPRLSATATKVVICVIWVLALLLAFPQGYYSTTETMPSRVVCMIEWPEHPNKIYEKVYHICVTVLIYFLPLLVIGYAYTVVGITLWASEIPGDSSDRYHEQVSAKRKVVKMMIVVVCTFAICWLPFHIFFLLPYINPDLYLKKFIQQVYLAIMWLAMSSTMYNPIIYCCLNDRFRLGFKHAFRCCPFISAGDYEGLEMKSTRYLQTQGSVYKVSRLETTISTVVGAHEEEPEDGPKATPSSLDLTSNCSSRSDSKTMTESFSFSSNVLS
T3 sequence (P30547 whole entry): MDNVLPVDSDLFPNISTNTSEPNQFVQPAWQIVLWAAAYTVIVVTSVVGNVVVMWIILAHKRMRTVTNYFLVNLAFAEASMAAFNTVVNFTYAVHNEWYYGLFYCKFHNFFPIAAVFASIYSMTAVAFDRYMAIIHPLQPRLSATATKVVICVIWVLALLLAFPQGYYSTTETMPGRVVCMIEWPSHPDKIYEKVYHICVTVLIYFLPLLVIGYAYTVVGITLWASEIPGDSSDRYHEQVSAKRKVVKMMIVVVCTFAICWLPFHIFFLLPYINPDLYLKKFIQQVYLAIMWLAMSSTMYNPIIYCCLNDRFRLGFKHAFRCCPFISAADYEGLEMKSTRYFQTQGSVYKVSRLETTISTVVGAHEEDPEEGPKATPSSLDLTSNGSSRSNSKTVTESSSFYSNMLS

Compound	LD50 [1] [mg/kg]	IC50 (NK1 [2]) [nM]	Ki (NK2 receptor [3]) [nM]	Ki (NK1 [2]; U-373 MG cells, 125I-Bolton Hunter Substance P, Ki calculated from IC50, read-out: Ki Human Astrocytoma Cells (Substance P antagonist potency)) [nM]	Potency relative to ditryptophenaline (NK1 [2]; ratio of IC50 values in human astrocytoma cells)	pA2, competitive inhibition of Substance P-induced contractility (NK1 [4])	IC50 (NK1 [5]) [nM]	Ki (NK2 receptor [6]) [nM]	IC50 (NK2 receptor [7]) [nM]	Ki (NK1 [8]) [nM]	IC50 (NK3) [nM]
CN1C(=O)[C@@H]2C[C@@]3([C@@]45C[C@H]6C(=O)N(C)[C@@H](Cc7ccccc7)C(=O)N6[C@@H]4Nc4ccccc45)c4ccccc4N[C@H]3N2C(=O)[C@@H]1Cc1ccccc1 [ditryptophenaline, reference compound]	> 200	12000									
O=C1N[C@@H](Cc2ccccc2)C(=O)N2[C@H]3Nc4ccccc4C3([C@]34C[C@H]5C(=O)N[C@@H](Cc6ccccc6)C(=O)N5[C@H]3Nc3ccccc34)C[C@@H]12 (stereo partly drawn) [Compound I-1]		300	260	240	fortyfold	6.6±0.31	600 ± 300	720	3400 ± 1300	950 to 2400	15200
